Patent US10052310B2, “Separase inhibitors and uses thereof” (Baylor College of Medicine, priority 2013, dated 2018)

Biological target: T1, Separase (Homo sapiens, UniProt Q14674)
T1 construct: made in house; host or cells: 293T cells; released from IgG-Agarose by TEV protease
Assay: Fluorogenic Separase activity assay using (Rad21)2-Rh110 as substrate
Assay type: biochemical
Conditions: DMSO final concentration 2% to 38%
Protocol: The substrate used in this Example is (Rad21)2-Rh110, which has two Rad21 peptide molecules (Asp-Arg-Glu-Ile-Nle-Arg) conjugated to one molecule of Rhodamine 110 (Rh110) (CPC Scientific, Sunnyvale Calif.). The assay was set up using 384-well low volume black polystyrene plates (Corning, N.Y.). Fifteen micro liter of activated Separase (˜5 ng) was mixed with 5 μl of test compound. The cleavage buffer (CB) used to dilute reagents was (30 mM Hepes-KOH pH7.7, 50 mM NaCl, 25 mM NaF, 25 mM KCl, 5 mM MgCl2, 1.5 mM ATP, and 1 mM EGTA). The mixture was incubated at room temperature for 1 h, and then 5 μl of 0.2 mM substrate (Rad21)2-Rh110 was added. The positive control contained Separase, substrate and CB without the test compound. The negative control contained substrate and CB only. After the reaction mixture was incubated at 37° C. for 3 h, the relative fluorescence intensity was measured (without stopping the enzymatic activity) at λex=390 nm/λem=450 nm for […] (AMC) released from Rad21-MCA or λex=490 nm/λem=528 nm for Rh110 released from (Rad21)2-Rh110 using a Synergy™ 4 Multi-Mode Microplate Reader (BioTek Instruments Inc., Winooski, Vt.).
Different amounts of Sepin-1 were mixed with activated Separase for 30 min before substrate (Rad21)2-Rh110 was added. After 3 h incubation at 37° C., the fluorescence intensity of Rh110 was determined. IC50 was calculated using either KaleidaGraph program (Synerge software, Reading, Pa.) or four parameter logistic equation (4-parameter dose-response curve fit): Inhibition of Activity (%)=min+(max−min)/{1+(log [M]/IC50)}^Hill Slop, where “min” and “max” represent minimal and maximal activity inhibition, respectively. Hill Slop is the slope of the curve at its midpoint. To identify the mode of Sepin-1 interacting with Separase, different amounts of both Sepin-1 and (Rad21)2-Rh110 were used in the Separase activity assay.

T1 sequence (Q14674 whole entry): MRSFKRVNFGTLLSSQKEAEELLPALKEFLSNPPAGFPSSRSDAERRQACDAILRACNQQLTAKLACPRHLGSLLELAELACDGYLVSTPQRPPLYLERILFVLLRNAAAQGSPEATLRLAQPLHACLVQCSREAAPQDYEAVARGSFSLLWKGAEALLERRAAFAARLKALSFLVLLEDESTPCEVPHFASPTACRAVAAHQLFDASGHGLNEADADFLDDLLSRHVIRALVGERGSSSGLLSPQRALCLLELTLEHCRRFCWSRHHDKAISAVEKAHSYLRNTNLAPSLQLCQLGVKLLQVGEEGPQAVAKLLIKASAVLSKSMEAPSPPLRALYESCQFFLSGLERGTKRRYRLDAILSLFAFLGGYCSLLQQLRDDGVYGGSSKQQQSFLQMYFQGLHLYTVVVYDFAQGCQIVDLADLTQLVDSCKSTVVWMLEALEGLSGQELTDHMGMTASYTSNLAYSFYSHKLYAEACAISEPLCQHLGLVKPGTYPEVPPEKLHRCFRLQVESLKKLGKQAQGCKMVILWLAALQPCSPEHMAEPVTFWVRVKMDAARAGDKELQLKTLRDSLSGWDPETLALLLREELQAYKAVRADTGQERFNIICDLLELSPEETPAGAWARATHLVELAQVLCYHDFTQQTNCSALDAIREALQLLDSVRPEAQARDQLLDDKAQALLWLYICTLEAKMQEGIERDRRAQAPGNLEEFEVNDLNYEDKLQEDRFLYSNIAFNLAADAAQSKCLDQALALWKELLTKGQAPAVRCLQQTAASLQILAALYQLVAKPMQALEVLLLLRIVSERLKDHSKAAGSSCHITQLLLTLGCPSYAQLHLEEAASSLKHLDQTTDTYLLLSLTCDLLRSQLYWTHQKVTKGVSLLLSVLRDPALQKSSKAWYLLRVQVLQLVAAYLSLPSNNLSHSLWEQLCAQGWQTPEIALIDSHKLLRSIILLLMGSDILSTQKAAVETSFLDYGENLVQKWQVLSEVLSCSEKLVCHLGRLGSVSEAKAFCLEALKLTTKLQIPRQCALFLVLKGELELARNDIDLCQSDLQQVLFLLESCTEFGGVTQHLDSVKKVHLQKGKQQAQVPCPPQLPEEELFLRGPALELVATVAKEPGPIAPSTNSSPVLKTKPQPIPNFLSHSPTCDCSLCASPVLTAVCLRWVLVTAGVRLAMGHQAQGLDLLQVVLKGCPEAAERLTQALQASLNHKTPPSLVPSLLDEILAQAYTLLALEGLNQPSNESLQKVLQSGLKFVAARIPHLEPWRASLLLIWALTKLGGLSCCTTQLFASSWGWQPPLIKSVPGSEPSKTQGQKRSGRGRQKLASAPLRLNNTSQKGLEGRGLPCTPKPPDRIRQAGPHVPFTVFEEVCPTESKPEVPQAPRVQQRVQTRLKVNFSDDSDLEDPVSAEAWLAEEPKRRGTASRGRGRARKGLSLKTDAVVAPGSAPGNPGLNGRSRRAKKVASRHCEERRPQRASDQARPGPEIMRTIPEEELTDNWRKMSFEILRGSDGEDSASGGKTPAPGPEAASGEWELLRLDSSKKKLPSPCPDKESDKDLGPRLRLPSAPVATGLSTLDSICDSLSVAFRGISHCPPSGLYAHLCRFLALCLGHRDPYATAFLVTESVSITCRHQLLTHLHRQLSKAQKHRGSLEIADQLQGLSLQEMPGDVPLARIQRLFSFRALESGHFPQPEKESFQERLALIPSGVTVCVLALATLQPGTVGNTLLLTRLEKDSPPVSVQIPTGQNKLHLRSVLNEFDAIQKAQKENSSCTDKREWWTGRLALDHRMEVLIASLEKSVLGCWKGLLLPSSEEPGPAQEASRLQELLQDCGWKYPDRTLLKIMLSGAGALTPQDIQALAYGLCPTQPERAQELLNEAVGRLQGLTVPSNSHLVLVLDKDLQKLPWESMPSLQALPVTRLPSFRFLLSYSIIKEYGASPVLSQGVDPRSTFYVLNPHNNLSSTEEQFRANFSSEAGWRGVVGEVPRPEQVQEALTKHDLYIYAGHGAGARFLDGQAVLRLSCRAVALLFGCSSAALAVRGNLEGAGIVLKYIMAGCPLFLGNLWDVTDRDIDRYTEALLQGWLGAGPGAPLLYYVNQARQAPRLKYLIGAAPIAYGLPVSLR

For `C[S+](C)[O-]` [DMSO], the “IC50 of DMSO on Separase assay” value was about 27%.
